# How the values were obtained:
# [1] = molecular target: T1, heteromeric channels containing rMiRP1 (Homo sapiens, UniProt Q12809); assay: Ca2+ treated as blocking ion, rMiRP1/HERG channels in oocytes, protocols 1 and 2; assay type: cell-based, rat; conditions: rMiRP1/HERG vs HERG
# T1 construct: expressed in transfected cells; host or cells: Xenopus laevis oocytes, cRNA injection
# Method: (§1) Raw data are shown without leak correction. […] All experiments were performed at 22° C.
# HERG channels [2] = molecular target: T2, HERG channels (Homo sapiens, UniProt Q12809); assay: Ca2+ treated as blocking ion, HERG channels in oocytes, protocols 1 and 2; assay type: cell-based; design: expressed in transfected cells; host or cells: CHO cells; conditions: −100 mV, read-out: apparent equilibrium inhibition constant (Ki)
# Method: as §1
# Native IKr channels = conditions: ferret cardiac myocytes; Liu et al., 1996; read-out: Ki, E-4031, native IKr channels; cited from earlier work
# HERG channels [3] = molecular target: T2, HERG channels; assay: cell-based
# Method: (§2) Ionic conditions. Activation of channels formed only with HERG or containing both rMiRP1 and HERG subunits was assessed at various Ca^2+ concentrations by protocols 1 and 2. […] Initial characterizations were thus performed in a “low Ca^2+/high K^+” bath solution (in mM): 95 KCl, 5 NaCl, 1 MgCl2, 0.3 CaCl2 and 10 HEPES, pH 7.6 with NaOH. Other studies use solutions based on levels of ionized species found in human plasma (in mM): 4 KCl, 95 NaCl, 0.75 MgCl2, 1 CaCl2 and 10 HEPES, pH 7.6 with NaOH. For K^+ titrations in FIG. 4, NaCl and KCl were isotonically substituted. For cell-attached patches, pipette solution was (in mM): 100 KCl, 1 MgCl2, 0.3 CaCl2, 10 HEPES, pH 7.5 with KOH. For whole cell, pipettes contained (in mM): 100 KCl, 1 MgCl2, 10 HEPES, 2 EGTA, pH 7.5 with KOH.
# [4] = molecular target: wild type hMiRP1/HERG channels (Homo sapiens, UniProt Q12809); assay: Drug blockade of wild type hMiRP1/HERG channels expressed in CHO cells
# Method: as §2
# Q9E-hMiRP1 channels = Q9E-hMiRP1 channels (Homo sapiens, UniProt Q12809); assay: Clarithromycin blockade of Q9E-hMiRP1/HERG channels in CHO cells; conditions: for Ki: clarithromycin blockade
# Method: Wild type hMiRP1/HERG channels and those formed with Q9E, M54T, I57T or T8A-hMiRP1 were compared by transient expression in CHO cells using 1 mM Ca^2+, 4 mM KCl solution.
smiles,measurement,setting,value
[Ca+2] [Ca^2+],"apparent Ki relative to HERG channels, fold lower",[1],~3 fold
same,Ki,HERG channels [2],290 ± 20 µM
Cc1cccc(CCN2CCC(C(=O)c3ccc(NS(C)(=O)=O)cc3)CC2)n1 [E-4031],Ki,Native IKr channels,0.0103 µM
CC[C@H]1OC(=O)[C@H](C)[C@@H](O[C@H]2C[C@@](C)(OC)[C@@H](O)[C@H](C)O2)[C@H](C)[C@@H](O[C@@H]2O[C@H](C)C[C@H](N(C)C)[C@H]2O)[C@](C)(OC)C[C@@H](C)C(=O)[C@H](C)[C@@H](O)[C@]1(C)O [clarithromycin],IC50,HERG channels [3],750 ± 310 µM
same,IC50,[4],720 ± 180 µM
same,Ki,[4],590 ± 100 µM
same,shift of V1/2 to more positive potentials,"[4]; human, pH 7.6",10 mV
same,sensitivity to the drug relative to wild type channels,Q9E-hMiRP1 channels,3 fold
same,shift of V1/2 to more positive potentials,Q9E-hMiRP1 channels,10 mV
same,Ki,"Q9E-hMiRP1 channels; CHO cells, 1 mM Ca2+, 4 mM KCl",240 ± 40 µM
same,Ki,"Q9E-hMiRP1 channels; bath K+ reduced to 1 mM, n=6 cells",200 ± 70 µM

# Source: patent publication US6864364B1, “MinK-related genes, formation of potassium channels and association with cardiac arrhythmia” (priority 1999, dated 2005)
